Measurements from US12016312B2, “Animal models, screening methods, and treatment methods for intraocular diseases or disorders” (ZHUHAI QIWEI BIO-TECHNOLOGY LTD., priority 2018, dated 2024).
“Also recorded” adds a separate entry of the source.

Tests used:
Bacillus megaterium [1] = test: Antibiotic sensitivity screening test in petri dishes (MIC method); format: cell-based; settings: 10^-1 to 10^-5 mg/mL
Method: (§1) The bacterial culture medium (HuanKai Microbial, Guangzhou, China) containing peptone 5 g, beef extract 3 g, NaCl 5 g, agar 15 g, and MnSO4 5 mg in 1 L ddH2O (pH=7.2) was prepared in conical flask (Drtech, Guangzhou, China) and was sterilized in the autoclave (HIRAYAMA, HEV-50, Japan) at 121° C. for 30 min. Bacillus megaterium (total 1*10^7 per culture) was cultured in the incubator (HettCube 200, Germany) at 37° C. for 24 h.
To test whether antibiotics can control the growth of Bacillus megaterium in vitro and in vivo, we first carried out an antibiotic sensitivity screening test in petri dishes which were made in example 1. The sensitivity of Bacillus megaterium to several major antimicrobial agents including ampicillin, vancomycin, neomycin, metronidazole and tetracycline were examined using the minimum inhibitory concentration (MIC) method. Ampicillin, vancomycin, neomycin, metronidazole, and tetracycline (purchased from Sigma, USA) at various concentrations (10^−1, 10^−2, 10^−3, 10^−4, 10^−5 mg/mL) were added into cooled medium.
as §1, with “Bacillus megaterium (total 1*10^7 per culture) was cultured in the incubator (HettCube 200, Germany) at 37° C. for 24 h.” left out

Bacillus megaterium [2] = test: Bacillus megaterium subretinal inoculation model, drusenoid pathology in monkey retinal tissues; format: in vivo, Macaca fascicularis; settings: intravitreous, 0.5 mg, one injection on Day 2 post bacterial inoculation; macaque
Method: The macaques were sedated by intramuscular injection of a mixture of tiletamine hydrochloride (2.5 mg/kg) and xolazepam hydrochloride (2.5 mg/kg). After instilling topical anesthesia (0.5% proparacaine hydrochloride), the eyes were immediately visualized in vivo using a light microscope. The pupils were then dilated with 0.5% tropicamide and 0.5% phenylephrine to obtain the fundus photographs. […] Under microscopic monitoring, 20 μl of PBS (with or without bacteria) was injected into the subretinal space between photo receptors and RPE (retinal pigment epithelium), using a NanoFil Syringe Nanofil-100 for Microinjection (World Precision Instruments, USA). All procedures were done using sterile instruments. The macaque was euthanized 47 days post inoculation and the eyeball was enucleated for histological analyses. The eyeballs were fixed in 4% paraformaldehyde for 48 h and then embedded in paraffin. Sections were cut on a microtome at 6 μm and stained with H&E.
We examined whether subretinal inoculation of AH and VH cultures, as well as the cultured single species of B. megaterium led to AMD like pathology in macaque. About 20 CFU of bacteria (in 20 μl PBS) from AH, VH, and B. megaterium cultures were injected subretinally and PBS was used as a control (illustrated in FIG. 6). […]

Compound: neomycin
- sensitivity of Bacillus megaterium to antimicrobial agents (control of growth in vitro) (Bacillus megaterium [1]; 1*10^7 bacteria per culture, 37° C., 24 h): most sensitive; also recorded: best in vitro activity

Compound: CN[C@H](CC(C)C)C(=O)N[C@H]1C(=O)N[C@@H](CC(N)=O)C(=O)N[C@H]2C(=O)N[C@H]3C(=O)N[C@H](C(=O)N[C@H](C(=O)O)c4cc(O)cc(O)c4-c4cc3ccc4O)[C@H](O)c3ccc(c(Cl)c3)Oc3cc2cc(c3O[C@@H]2O[C@H](CO)[C@@H](O)[C@H](O)[C@H]2O[C@H]2C[C@](C)(N)[C@H](O)[C@H](C)O2)Oc2ccc(cc2Cl)[C@H]1O [vancomycin]
- size of drusenoid lesion in retinal tissue (Bacillus megaterium [2]): reduce drusenoid lesion; also recorded: reduction in the size of drusenoid lesion

Compound: Cc1ncc([N+](=O)[O-])n1CCO [metronidazole]
- fold less effective in controlling the growth of Bacillus megaterium (relative to neomycin) (Bacillus megaterium [1]): 10000 fold
